Where a SMILES comes first, the peptide text is derived from it.
test system: T2 cell lines preincubated with peptide; assay: Recognition of modified peptides by natural epitope (M9-2, G9-154, G9-209, G9-280) reactive T-cells, 51Cr release on peptide-pulsed T2 cells (Example 5); type: cell-based, human
Description: Assessment of antigen recognition by CTL. ^51Cr release cytotoxic assays were performed to detect the recognition of peptide and melanoma cells by CTL. To analyze peptide recognition, T2 cell lines were preincubated for 2 h at 37° C. with 1 ug/ml peptide, washed and used as target cells in a ^51Cr release cytotoxic assay. The melanoma lines 624mel was established in our laboratory (See Example 1).
In order to make more immunogenic peptides for induction of anti-melanoma T-cells than natural melanoma epitopes, a variety of peptides in which at least 1 amino acid was changed based on consensus motifs in peptides binding to a specific MHC Class I allele Falk, et al. (1991) Nature 351:290; Kubo et al. (1994) J. Immunol 152:3913; Parker, K. et al. (1992) Journal of Immunology 149:3580; Ruppert, J. et al. (1993) Cell 74:929-937) (Tables 14, 15, 16, and 17). […] By changing amino acid at the 1st, 2nd, 3rd or 9th positions which are important for HLA-A2 binding to the peptide, but less important for recognition by T-cell receptors, artificial peptides which can bind to HLA-A2.1 with higher affinity and still be recognized by natural epitope specific T-cells may be generated.

SMILES	Recognition by G9-154 reactive T-cell	Recognition by G9-209 reactive T-cell	Recognition by M9-2 reactive T-cell
CC(C)C[C@H](NC(=O)[C@H](C)N)C(=O)N[C@@H](Cc1c[nH]c2ccccc12)C(=O)NCC(=O)N[C@@H](CCC(N)=O)C(=O)N[C@@H](Cc1ccc(O)cc1)C(=O)N[C@@H](Cc1c[nH]c2ccccc12)C(=O)N[C@@H](CCC(N)=O)C(=O)N[C@H](C(=O)O)C(C)C [G9-154-1A2L] (H-ALWGQYWQV-OH; N-terminus and C-terminus assumed)	+ (+, recognized)		
CC(C)[C@H](NC(=O)[C@H](CO)NC(=O)[C@H](Cc1ccccc1)NC(=O)[C@@H]1CCCN1C(=O)[C@@H](NC(=O)[C@H](CCC(N)=O)NC(=O)[C@H](CC(=O)O)NC(=O)[C@@H](NC(=O)[C@@H](N)Cc1c[nH]c2ccccc12)[C@@H](C)O)C(C)C)C(=O)O [G9-209-1W] (H-WTDQVPFSV-OH; N-terminus and C-terminus assumed)		+ (+, recognized)	
CC[C@H](C)[C@H](N)C(=O)N[C@@H](CC(C)C)C(=O)N[C@@H](C)C(=O)N[C@@H](CCC(N)=O)C(=O)N[C@H](C(=O)N1CCC[C@H]1C(=O)N[C@@H](Cc1ccccc1)C(=O)N[C@@H](CO)C(=O)N[C@H](C(=O)O)C(C)C)C(C)C [G9-209-2L3A]		−	
CC[C@H](C)[C@H](N)C(=O)N[C@@H](CC(C)C)C(=O)N[C@@H](Cc1ccccc1)C(=O)N[C@@H](CCC(N)=O)C(=O)N[C@H](C(=O)N1CCC[C@H]1C(=O)N[C@@H](Cc1ccccc1)C(=O)N[C@@H](CO)C(=O)N[C@H](C(=O)O)C(C)C)C(C)C [G9-209-2L3F]		−	
CC[C@H](C)[C@H](N)C(=O)N[C@@H](CC(C)C)C(=O)N[C@@H](CCSC)C(=O)N[C@@H](CCC(N)=O)C(=O)N[C@H](C(=O)N1CCC[C@H]1C(=O)N[C@@H](Cc1ccccc1)C(=O)N[C@@H](CO)C(=O)N[C@H](C(=O)O)C(C)C)C(C)C [G9-209-2L3M]		−	
CC[C@H](C)[C@H](N)C(=O)N[C@@H](CC(C)C)C(=O)N[C@@H](CO)C(=O)N[C@@H](CCC(N)=O)C(=O)N[C@H](C(=O)N1CCC[C@H]1C(=O)N[C@@H](Cc1ccccc1)C(=O)N[C@@H](CO)C(=O)N[C@H](C(=O)O)C(C)C)C(C)C [G9-209-2L3S] (H-ILSQVPFSV-OH; N-terminus and C-terminus assumed)		−	
CC[C@H](C)[C@H](N)C(=O)N[C@@H](CC(C)C)C(=O)N[C@@H](Cc1c[nH]c2ccccc12)C(=O)N[C@@H](CCC(N)=O)C(=O)N[C@H](C(=O)N1CCC[C@H]1C(=O)N[C@@H](Cc1ccccc1)C(=O)N[C@@H](CO)C(=O)N[C@H](C(=O)O)C(C)C)C(C)C [G9-209-2L3W] (H-ILWQVPFSV-OH; N-terminus and C-terminus assumed)		−	
CC[C@H](C)[C@H](N)C(=O)N[C@@H](CC(C)C)C(=O)N[C@@H](Cc1ccc(O)cc1)C(=O)N[C@@H](CCC(N)=O)C(=O)N[C@H](C(=O)N1CCC[C@H]1C(=O)N[C@@H](Cc1ccccc1)C(=O)N[C@@H](CO)C(=O)N[C@H](C(=O)O)C(C)C)C(C)C [G9-209-2L3Y] (H-ILYQVPFSV-OH; N-terminus and C-terminus assumed)		−	
CC[C@H](C)[C@H](N)C(=O)N[C@H](C(=O)N[C@@H](C)C(=O)N[C@@H](CCC(N)=O)C(=O)N[C@H](C(=O)N1CCC[C@H]1C(=O)N[C@@H](Cc1ccccc1)C(=O)N[C@@H](CO)C(=O)N[C@H](C(=O)O)C(C)C)C(C)C)[C@@H](C)O [G9-209-3A]		−	
CC[C@H](C)[C@H](N)C(=O)N[C@H](C(=O)N[C@@H](Cc1ccccc1)C(=O)N[C@@H](CCC(N)=O)C(=O)N[C@H](C(=O)N1CCC[C@H]1C(=O)N[C@@H](Cc1ccccc1)C(=O)N[C@@H](CO)C(=O)N[C@H](C(=O)O)C(C)C)C(C)C)[C@@H](C)O [G9-209-3F] (H-ITFQVPFSV-OH; N-terminus and C-terminus assumed)		−	
CC[C@H](C)[C@H](N)C(=O)N[C@H](C(=O)N[C@@H](CCSC)C(=O)N[C@@H](CCC(N)=O)C(=O)N[C@H](C(=O)N1CCC[C@H]1C(=O)N[C@@H](Cc1ccccc1)C(=O)N[C@@H](CO)C(=O)N[C@H](C(=O)O)C(C)C)C(C)C)[C@@H](C)O [G9-209-3M] (H-ITMQVPFSV-OH; N-terminus and C-terminus assumed)		−	
CC[C@H](C)[C@H](N)C(=O)N[C@H](C(=O)N[C@@H](CO)C(=O)N[C@@H](CCC(N)=O)C(=O)N[C@H](C(=O)N1CCC[C@H]1C(=O)N[C@@H](Cc1ccccc1)C(=O)N[C@@H](CO)C(=O)N[C@H](C(=O)O)C(C)C)C(C)C)[C@@H](C)O [G9-209-3S]		−	
CC[C@H](C)[C@H](N)C(=O)N[C@H](C(=O)N[C@@H](Cc1c[nH]c2ccccc12)C(=O)N[C@@H](CCC(N)=O)C(=O)N[C@H](C(=O)N1CCC[C@H]1C(=O)N[C@@H](Cc1ccccc1)C(=O)N[C@@H](CO)C(=O)N[C@H](C(=O)O)C(C)C)C(C)C)[C@@H](C)O [G9-209-3W]		−	
CC[C@H](C)[C@H](N)C(=O)N[C@H](C(=O)N[C@@H](Cc1ccc(O)cc1)C(=O)N[C@@H](CCC(N)=O)C(=O)N[C@H](C(=O)N1CCC[C@H]1C(=O)N[C@@H](Cc1ccccc1)C(=O)N[C@@H](CO)C(=O)N[C@H](C(=O)O)C(C)C)C(C)C)[C@@H](C)O [G9-209-3Y] (H-ITYQVPFSV-OH; N-terminus and C-terminus assumed)		−	
CC[C@H](C)[C@H](NC(=O)CNC(=O)[C@H](CC(C)C)NC(=O)[C@@H](N)Cc1ccccc1)C(=O)NCC(=O)N[C@H](C(=O)N[C@@H](CC(C)C)C(=O)N[C@H](C(=O)N[C@H](C(=O)O)C(C)C)[C@@H](C)O)[C@@H](C)CC [M9-2-1F2L]			−
CC[C@H](C)[C@H](NC(=O)CNC(=O)[C@@H](NC(=O)[C@@H](N)CCCCN)[C@@H](C)CC)C(=O)NCC(=O)N[C@H](C(=O)N[C@@H](CC(C)C)C(=O)N[C@H](C(=O)N[C@H](C(=O)O)C(C)C)[C@@H](C)O)[C@@H](C)CC [M9-2-1K2I]			−
CC[C@H](C)[C@H](NC(=O)CNC(=O)[C@H](CC(C)C)NC(=O)[C@@H](N)CCCCN)C(=O)NCC(=O)N[C@H](C(=O)N[C@@H](CC(C)C)C(=O)N[C@H](C(=O)N[C@H](C(=O)O)C(C)C)[C@@H](C)O)[C@@H](C)CC [M9-2-1K2L]			−
CC[C@H](C)[C@H](NC(=O)CNC(=O)[C@H](CCSC)NC(=O)[C@@H](N)CCCCN)C(=O)NCC(=O)N[C@H](C(=O)N[C@@H](CC(C)C)C(=O)N[C@H](C(=O)N[C@H](C(=O)O)C(C)C)[C@@H](C)O)[C@@H](C)CC [M9-2-1K2M]			−
CC[C@H](C)[C@H](NC(=O)CNC(=O)[C@H](CC(C)C)NC(=O)[C@@H](N)Cc1c[nH]c2ccccc12)C(=O)NCC(=O)N[C@H](C(=O)N[C@@H](CC(C)C)C(=O)N[C@H](C(=O)N[C@H](C(=O)O)C(C)C)[C@@H](C)O)[C@@H](C)CC [M9-2-1W2L]			−
CC[C@H](C)[C@H](NC(=O)CNC(=O)[C@H](C)NC(=O)[C@@H](N)Cc1c[nH]c2ccccc12)C(=O)NCC(=O)N[C@H](C(=O)N[C@@H](CC(C)C)C(=O)N[C@H](C(=O)N[C@H](C(=O)O)C(C)C)[C@@H](C)O)[C@@H](C)CC [M9-2-1W]			+ (+, recognized)
CC[C@H](C)[C@H](NC(=O)CNC(=O)[C@H](CC(C)C)NC(=O)[C@@H](N)Cc1ccc(O)cc1)C(=O)NCC(=O)N[C@H](C(=O)N[C@@H](CC(C)C)C(=O)N[C@H](C(=O)N[C@H](C(=O)O)C(C)C)[C@@H](C)O)[C@@H](C)CC [M9-2-1Y2L]			−
CC[C@H](C)[C@H](NC(=O)CNC(=O)[C@H](C)NC(=O)[C@@H](N)Cc1ccc(O)cc1)C(=O)NCC(=O)N[C@H](C(=O)N[C@@H](CC(C)C)C(=O)N[C@H](C(=O)N[C@H](C(=O)O)C(C)C)[C@@H](C)O)[C@@H](C)CC [M9-2-1Y]			−
CC[C@H](C)[C@H](NC(=O)CNC(=O)[C@@H](NC(=O)[C@H](C)N)[C@@H](C)CC)C(=O)NCC(=O)N[C@H](C(=O)N[C@@H](CC(C)C)C(=O)N[C@H](C(=O)N[C@H](C(=O)O)C(C)C)[C@@H](C)O)[C@@H](C)CC [M9-2-2I]			−
CC[C@H](C)[C@H](NC(=O)CNC(=O)[C@@H](NC(=O)[C@H](Cc1ccccc1)NC(=O)[C@H](CC(C)C)NC(=O)[C@H](C)N)[C@@H](C)CC)C(=O)N[C@@H](CC(C)C)C(=O)N[C@H](C(=O)N[C@H](C(=O)O)C(C)C)[C@@H](C)O [M9-2-2L3F]			−
CC[C@H](C)[C@H](NC(=O)CNC(=O)[C@@H](NC(=O)[C@H](Cc1c[nH]c2ccccc12)NC(=O)[C@H](CC(C)C)NC(=O)[C@H](C)N)[C@@H](C)CC)C(=O)N[C@@H](CC(C)C)C(=O)N[C@H](C(=O)N[C@H](C(=O)O)C(C)C)[C@@H](C)O [M9-2-2L3W]			−
CC[C@H](C)[C@H](NC(=O)CNC(=O)[C@@H](NC(=O)[C@H](Cc1ccc(O)cc1)NC(=O)[C@H](CC(C)C)NC(=O)[C@H](C)N)[C@@H](C)CC)C(=O)N[C@@H](CC(C)C)C(=O)N[C@H](C(=O)N[C@H](C(=O)O)C(C)C)[C@@H](C)O [M9-2-2L3Y]			−
CC[C@H](C)[C@H](NC(=O)CNC(=O)[C@H](CCSC)NC(=O)[C@H](C)N)C(=O)NCC(=O)N[C@H](C(=O)N[C@@H](CC(C)C)C(=O)N[C@H](C(=O)N[C@H](C(=O)O)C(C)C)[C@@H](C)O)[C@@H](C)CC [M9-2-2M]			−
